Laboratory results: patent US8809343B2, “Pyrimidine derivative, preparation method and use thereof” (Fudan University, priority 2008, dated 2014)
Where two headings read alike, the source gives them in different places.

Legend:
MT-4 cells = assay: Cell toxicity in uninfected MT-4 cells (MTT method); assay type: cell-based
Description: (§1) Anti-virus activity of cells in vitro was determined by Rega Institute for Medical of […] Katholleke University, consisting mainly: inhibitory activity towards HIV-infected MT-4 cells and cell toxicity. The method is described below: exert the compound on the HIV-infected ME-4 cells, and determine the protection of the drug on the cell lesions induced by HIV at varied HIV-infection intervals, calculate the half effective concentration IC50, the required concentration that protect 50% of cells from cell lesions induced by HIV. Toxicity determination is carried out in parallel with anti-HIV activity experiments, also in the cultured MT-4 cells, determine the CC50, the concentration that leads 50% of uninfected cells to cell lesions, and calculate the selectivity index SI=CC50/IC50 with the MTT method.
(§2) The detailed operation is as follows: the compound is dissolved with DMSO or water and diluted with phosphate buffer saline, 3×10^5 MT-4 cells are cultured with 100 μL various concentrations of compounds for 1 h, then 100 μL suitable virus dilution is added to the compound, and the cells are cultured at 37° C. for 1 h. After being washed for 3 times, the cells are suspended again in the culture media containing or not compounds individually. Subsequently, the cells are transferred to the atmosphere containing 5% CO2 and cultured for 7 days at 37° C., and culture media containing or not compounds are used to replace or supplement the culture solution on the third day after infection. Kinds of culture conditions should be duplicated. The cell lesions caused by virus are monitored with reverse light microscopy everyday. Typically, the virus dilution applied in the present experiments generally cause cell lesion on the fifth day after infection. […] It should be emphasized that, when the compound is poorly water-soluble and can only be dissolved in DMSO, the ratio of DMSO to water is generally below 10% (the final concentration of DMSO in MT-4 cell culture media is smaller than 2%). Because DMSO can influence the anti-virus activity of the tested compounds, blank tests on the solution containing the same concentration of DMSO should be conducted in parallel. Additionally, the final concentration of DMSO is far below the concentration required to influence the replication of HIV-1 in T cells.

HIV-1 IIIB strain = assay: Anti-HIV activity: protection of HIV-infected MT-4 cells from virus-induced cell lesions; assay type: cell-based
Description: as §1
(§3) Anti-HIV activity of various compounds is monitored by the inhibitory efficiency of drugs on the cell lesions induced by HIV. Carry out cell culture with MT-4 cells. The adopted virus strains are HIV-1 IIIB strain and drug-resistant viral strain of […].
as §2

[1] = test system: drug-resistant viral strain of L103N+Y181C; assay: Anti-HIV activity in MT-4 cells, drug-resistant viral strain; assay type: cell-based, HIV-1
Description: as §1, §3, §2

[2] = Cell toxicity in uninfected MT-4 cells (MTT method); assay type: cell-based; details: human
Description: as §1, §2

[3] = MT-4 cells, Table 3, read-out: EC50 HIV-1(IIIB)
[4] = Human immunodeficiency virus 1, MT4, read-out: EC50 103N + 181C, MT-4 cells, Table 1
[5] = HIV-1 IIIB, MT-4 cells, Table 1
[6] = Human immunodeficiency virus 1, IIIB, MT4, read-out: EC50 HIV-1(IIIB)
[7] = MT-4 cells, Table 1, read-out: EC50 103N + 181C
[8] = MT-4 cells, Table 1, read-out: EC50 HIV-1(IIIB)
[9] = HIV-1 IIIB, MT-4 cells, Table 3
[10] = Human immunodeficiency virus 1, IIIB, MT4, MT-4 cells, Table 1, read-out: EC50 HIV-1(IIIB)
[11] = Human immunodeficiency virus 1, IIIB, MT4, MT-4 cells, Table 2, read-out: EC50 WT(IIIB)

CCOc1cc(C#N)cc(OCC)c1Oc1nc(Nc2ccc(C#N)cc2)nc2ccccc12 [Compound 46] showed a CC50 (MT-4 cells; Table 3) of over 99.3 µM and an EC50 (HIV-1 IIIB strain; [3]) of 0.0029 µM.
In the case of N#Cc1ccc(Nc2nccc(Oc3cccc4cccnc34)n2)cc1 [Compound 1], the EC50 [1, 4] is reported as at least 38.8 µM, the CC50 at 7 days ([2]; uninfected MT-4 cells, Table 1) is reported as 38.8 µM and the “SI (Selectivity index, the ratio of CC50/IC50)” value (HIV-1 IIIB strain; [5]) is reported as 13393. The EC50 (HIV-1 IIIB strain; [6]) was 0.0029 µM.
CCc1c(NC)nc(Nc2ccc(C#N)cc2)nc1Oc1ccc2cc(C#N)ccc2c1Br [Compound 18] showed an EC50 [1, 7] of over 59.5 µM, a CC50 (MT-4 cells; Table 1) of 304 µM and an EC50 (HIV-1 IIIB strain; [8]) of 0.0062 µM.
For N#Cc1ccc(Nc2nc(Oc3ccc(Cl)cc3Cl)c3ccccc3n2)cc1 [Compound 37], the CC50 (MT-4 cells; Table 3) was 114 µM and the EC50 (HIV-1 IIIB strain; [3]) was 0.028 µM.
For Cc1cnc(Nc2ccc(C#N)cc2)nc1Oc1cccc2cccnc12 [Compound 5], the CC50 (MT-4 cells; Table 1) was 19.9 µM and the EC50 (HIV-1 IIIB strain; [8]) was 0.0058 µM.
Compound CNc1nc(Nc2ccc(C#N)cc2)nc(Oc2ccc3ccccc3c2Br)c1C [Compound 17] has an EC50 [1, 7] of 6.15 µM, a CC50 (MT-4 cells; Table 1) of 177 µM and an EC50 (HIV-1 IIIB strain; [8]) of 0.0154 µM.
Compound Cc1cc(C#N)ccc1Oc1nc(Nc2ccc(C#N)cc2)nc2ccccc12 [Compound 33] has a CC50 (MT-4 cells; Table 3) of over 333 µM and an EC50 (HIV-1 IIIB strain; [3]) of 0.028 µM.
Work on Cc1c(Oc2ccnc(Nc3ccc(C#N)cc3)n2)ccc2ccccc12 [Compound 10] yielded an EC50 [1, 7] of 11 µM, a CC50 (MT-4 cells; Table 1) of 114 µM and an EC50 (HIV-1 IIIB strain; [8]) of 0.00346 µM.
In the case of N#Cc1ccc(Nc2nc(Oc3ccc(Br)cc3)c3ccccc3n2)cc1 [Compound 26], the CC50 at 7 days ([2]; uninfected MT-4 cells, Table 3) is reported as 235 µM, the “SI (Selectivity index, the ratio of CC50/IC50)” value (HIV-1 IIIB strain; [9]) is reported as 894 and the EC50 (HIV-1 IIIB strain; [6]) is reported as 0.263 µM.
With CNc1cc(Oc2cccc3cccnc23)nc(Nc2ccc(C#N)cc2)n1 [Compound 3] the EC50 [1, 4] was at least 54.2 µM, the CC50 at 7 days ([2]; uninfected MT-4 cells, Table 1) was 54.2 µM and the “SI (Selectivity index, the ratio of CC50/IC50)” value (HIV-1 IIIB strain; [5]) was 6089. It also gave an EC50 (HIV-1 IIIB strain; [6]) of 0.0089 µM.
Compound N#Cc1ccc(Nc2nc(Oc3ccc(F)cc3)c3ccccc3n2)cc1 [Compound 38] has a CC50 (MT-4 cells; Table 3) of 310 µM and an EC50 (HIV-1 IIIB strain; [3]) of 0.156 µM.
For CC(C)c1c(Cl)nc(Nc2ccc(C#N)cc2)nc1Oc1ccc2cc(C#N)ccc2c1 [Compound 9], the EC50 [1, 7] was 3.36 µM, the CC50 (MT-4 cells; Table 1) was 436 µM and the EC50 (HIV-1 IIIB strain; [8]) was 0.05 µM.
Work on Cc1ccnc2c1NC(=O)c1cccnc1N2C1CC1 [NVP, nevirapine, reference compound] yielded a CC50 at 7 days ([2]; Table 1) of 5.41 µM, a CC50 at 7 days ([2]; Table 3) of over 15 µM and an EC50 (HIV-1 IIIB strain; [10]) of 0.0751 µM. For the same compound, the EC50 (HIV-1 IIIB strain; [11]) was 0.0751 µM.
In the case of Cc1ccc(Oc2nc(Nc3ccc(C#N)cc3)nc3ccccc23)cc1 [Compound 31], the CC50 at 7 days ([2]; uninfected MT-4 cells, Table 3) is reported as 340 µM, the “SI (Selectivity index, the ratio of CC50/IC50)” value (HIV-1 IIIB strain; [9]) is reported as 8091 and the EC50 (HIV-1 IIIB strain; [6]) is reported as 0.042 µM.
For N#Cc1ccc(Nc2nccc(Oc3ccc4cc(C#N)ccc4c3)n2)cc1 [Compound 14], the EC50 [1, 7] was 6.3 µM, the CC50 (MT-4 cells; Table 1) was 67.8 µM and the EC50 (HIV-1 IIIB strain; [8]) was 0.0033 µM.
In the case of COc1ccc(Oc2nc(Nc3ccc(C#N)cc3)nc3ccccc23)cc1 [Compound 28], the CC50 at 7 days ([2]; uninfected MT-4 cells, Table 3) is reported as over 3400 µM, the “SI (Selectivity index, the ratio of CC50/IC50)” value (HIV-1 IIIB strain; [9]) is reported as over 1810 and the EC50 (HIV-1 IIIB strain; [6]) is reported as 0.187 µM.
Compound N#Cc1ccc(Nc2nc(Oc3c(Cl)cc(Cl)cc3Cl)c3ccccc3n2)cc1 [Compound 42] has a CC50 (MT-4 cells; Table 3) of 244 µM and an EC50 (HIV-1 IIIB strain; [3]) of 0.0035 µM.
For COc1ccccc1Oc1nc(Nc2ccc(C#N)cc2)nc2ccccc12 [Compound 29], the CC50 at 7 days ([2]; uninfected MT-4 cells, Table 3) was over 186 µM, the “SI (Selectivity index, the ratio of CC50/IC50)” value (HIV-1 IIIB strain; [9]) was over 6186 and the EC50 (HIV-1 IIIB strain; [6]) was 0.03 µM.
For Cc1ccccc1Oc1nc(Nc2ccc(C#N)cc2)nc2ccccc12 [Compound 25], the CC50 at 7 days ([2]; uninfected MT-4 cells, Table 3) was 108 µM, the “SI (Selectivity index, the ratio of CC50/IC50)” value (HIV-1 IIIB strain; [9]) was 1148 and the EC50 (HIV-1 IIIB strain; [6]) was 0.0937 µM.
For CC(C)Nc1cccnc1N1CCN(C(=O)c2cc3cc(NS(C)(=O)=O)ccc3[nH]2)CC1 [DLV, Delavirdine, reference compound], the CC50 at 7 days ([2]; uninfected MT-4 cells, Table 1) was 0.86 µM, the “SI (Selectivity index, the ratio of CC50/IC50)” value (HIV-1 IIIB strain; [5]) was 12 and the EC50 (HIV-1 IIIB strain; [10]) was 0.072 µM. For the same compound, the EC50 (HIV-1 IIIB strain; [11]) was 0.072 µM and the “SI (Selectivity index, the ratio of CC50/IC50)” value (HIV-1 IIIB strain; WT(IIIB), Table 2) was 12.
Compound COc1nc(Nc2ccc(C#N)cc2)nc(Oc2cccc3cccnc23)c1C [Compound 8] has a CC50 (MT-4 cells; Table 1) of 31.8 µM and an EC50 (HIV-1 IIIB strain; [8]) of 0.0178 µM.
CNc1nc(Nc2ccc(C#N)cc2)nc(Oc2cccc3cccnc23)c1C [Compound 7] showed a CC50 (MT-4 cells; Table 1) of 36.5 µM and an EC50 (HIV-1 IIIB strain; [8]) of 0.0158 µM.
In the case of N#Cc1ccc(Nc2nc(S(=O)(=O)c3ccccc3)c3ccccc3n2)cc1 [Compound 51], the CC50 (MT-4 cells; Table 3) is reported as over 215 µM and the EC50 (HIV-1 IIIB strain; [3]) is reported as 0.589 µM.
In the case of N#Cc1ccc(Nc2nccc(Oc3ccc4cc(Br)ccc4c3Br)n2)cc1 [Compound 13], the EC50 [1, 7] is reported as over 50.4 µM, the CC50 (MT-4 cells; Table 1) is reported as 51.1 µM and the EC50 (HIV-1 IIIB strain; [8]) is reported as 0.0046 µM.
